Residues, ends and D or L forms follow the SMILES beside them.
Target: cAMP-dependent protein kinase (Homo sapiens, UniProt P17612)
Test: phosphorylation of chip-fixed substrate by kinase with [γ-32P]ATP, X-ray film detection
Format: biochemical
Conditions: substrate spotted on aldehyde coated slide glass, 10 units cAMP-dependent protein kinase, reaction one hour, sensitized 12~24 hours
Description: First, kemptide (Promega, Madison, Wis.) or malic enzyme-kemptide fusion protein was fixed on a slid glass as a substrate. Particularly, kemptide was dissolved in kemptide solution (10% glycerol, 60% PBS, pH 7.5) at the concentration of 0.1 mg/ml and this substrate solution was integrated on the aldehyde coated slid glass by using a microarrayer [Affymetrix 417 Arrayer (Takara Shuzo, Japan)] with leaving 300 μm distance between spots (2500/1 cm^2). The malic enzyme-kemptide prepared in Example 1 was also integrated on the slid glass with leaving 300 μm distance between spots (2500/1 cm^2). At this time, the size of each spot was 50 μm. The biochip integrated with substrate as described above was fixed in a 30° C. humid chamber for one hour. The biochip prepared in Example 2 was washed three times with washing buffer (2 mM KH2PO4, 1 mM Na2HPO4, 200 mM NaCl, 3 mM KCl, pH 7.5) and then reaction between the substrate and kinase was induced on the chip. Particularly, the chip was washed with kinase buffer (50 mM Tris-HCl, 10 mM MgCl2, pH 7.5) once and then pre-incubation was performed in the kinase buffer supplemented with 100 μM of ATP. […] The reacted biochip was sensitized on X-ray film for 12˜24 hours and then phosphorylation by kinase was measured.

CC(C)C[C@H](NC(=O)[C@H](CO)NC(=O)[C@H](C)NC(=O)[C@H](CCCNC(=N)N)NC(=O)[C@H](CCCNC(=N)N)NC(=O)[C@@H](N)CC(C)C)C(=O)NCC(=O)O [kemptide] (H-LRRASLG-OH)
phosphorylation by kinase (spot signal on X-ray film): spot signals were clearly confirmed

From US20100029507A1, “THE BIOCHIP FOR THE DETECTION OF PHOSPHORYLATION AND THE DETECTION METHOD USING THE SAME” (priority 2006, published 2010)
